The NIST ThermoML archive (doi:10.1021/je049818g)

Details: Liquid, Hot wire method

CCCCOCCO [2-butoxyethan-1-ol]
Details	thermal conductivity [W/m/K]
283.96 K	0.1381
293.67 K	0.1365
303.56 K	0.135
314.25 K	0.1333
323.88 K	0.1319
333.98 K	0.1305
344.05 K	0.129
354.63 K	0.1272
363.59 K	0.1258
373.84 K	0.1241

CCC(C)=O [butanone]
Details	thermal conductivity [W/m/K]
284.48 K	0.1501
294.42 K	0.1481
305.02 K	0.1459
314.26 K	0.1435
323.96 K	0.1414
334.71 K	0.139
344.54 K	0.1362
354.33 K	0.1334
364.46 K	0.1308
374.56 K	0.1284

COC [dimethyl ether]
Details	thermal conductivity [W/m/K]
229.67 K	0.1832
244.98 K	0.1762
254.6 K	0.1701
271.55 K	0.1605
281.76 K	0.1537
291.33 K	0.1485

Cc1ccccc1 [toluene]
Details	thermal conductivity [W/m/K]
234.6 K	0.1477
254.58 K	0.1434
273.17 K	0.1374
293.23 K	0.1334
314.68 K	0.1264
334.99 K	0.1211
354.89 K	0.1136
373.92 K	0.1105
